In patent publication US20040014740A1 (priority 2002, published 2004):

Tested on: binding site of a radiolabelled ligand (assay of U.S. Patent No. 5,859,188)
Test: binding assay as described in U.S. Patent No. 5,859,188: percent displacement of a radiolabelled ligand
Details: for Testing Result % inhibition at indicated concentration / Testing Result % inhibition at indicated concentration, Test 1: percent displacement of radiolabelled ligand; for Testing Result % inhibition at indicated concentration, Test 2: concentration not given for Test 2
Method: Selected compounds were evaluated for their anti-parasitic activity in a binding assay as described in U.S. Patent No. 5,859,188 (Geary, et.al., 1999). Results of the evaluations are given in the following Table wherein % inhibition means percent displacement of a radiolabelled ligand as described.

Compound	Testing Result % inhibition at indicated concentration, Test 1 (25 uM)	Testing Result % inhibition at indicated concentration, Test 2	Testing Result % inhibition at indicated concentration (25 uM)	also measured
CCOC(=O)c1c(NC(=O)CN2CCCCC2)sc2c1CCC2 [A, ethyl 2-{[2-(1-piperidinyl)acetyl]amino}-5,6-dihydro-4H-cyclopenta[b]thiophene-3-carboxylate]				Testing Result % inhibition at indicated concentration (3 uM): 69% at 3 uM
CCOC(=O)C1=C(NC(=O)CN2CCCCC2)SC2CCCCCC12 (stereo not shown) [C]	82%	53%		
CCOC(=O)c1c(NC(=O)CN2CCCCC2)sc2c1CCCC2 [Compound B]				Testing Result % inhibition at indicated concentration (1 uM): 59% at 1 uM
CCOC(=O)C1=C(NC(=O)CN2CCOCC2)SC2CCCCCC12 (stereo not shown) [Compound D]			38% at 25 uM	
CCOC(=O)c1cc(-c2ccsc2)sc1NC(=O)CN1CCCCC1 [aa, ethyl 5-[(piperidin-1-ylacetyl)amino]-2,3′-bithiophene-4-carboxylate]	46-66%	37-43%		
CCOC(=O)c1c(-c2ccsc2)csc1NC(=O)CN1CCCCC1 [bb, ethyl 5-[(piperidin-1-ylacetyl)amino]-3,3′-bithiophene-4-carboxylate]	40-63%	18-38%		
CC(C)OC(=O)c1c(NC(=O)CN2CCCCC2)sc2c1CCCC2 [cc, isopropyl 2-[(piperidin-1-ylacetyl)amino]-4,5,6,7-tetrahydro-1-benzothiophene-3-carboxylate]			34-54% at 25 uM	
CC(C)OC(=O)c1c(-c2ccc(Cl)c(Cl)c2)csc1NC(=O)CN1CCCCC1 [dd, isopropyl 4-(3,4-dichlorophenyl)-2-[(piperidin-1-ylacetyl)amino]thiophene-3-carboxylate]			0-9% at 25 uM	
CCOC(=O)c1c(NC(=O)CN2CCCCC2)sc2c1CCS2 [ee, ethyl 2-[(piperidin-1-ylacetyl)amino]-4,5-dihydrothieno[2,3-b]thiophene-3-carboxylate]			61-72% at 25 uM	
CCOC(=O)c1c(NC(=O)CN2CCC(O)CC2)sc2c1CCCC2 [ff, ethyl 2-{[(4-hydroxypiperidin-1-yl)acetyl]amino}-4,5,6,7-tetrahydro-1-benzothiophene-3-carboxylate]			31-34% at 25 uM	
CCOC(=O)c1c(NC(=O)CN2CCCC2)sc2c1CCCC2 [g, ethyl 2-[(pyrrolidin-1-ylacetyl)amino]-4,5,6,7-tetrahydro-1-benzothiophene-3-carboxylate]			68-75% at 25 uM	
CCOC(=O)c1c(NC(=O)CN2CCCC(O)C2)sc2c1CCCC2 (stereo not shown) [gg, ethyl 2-{[(3-hydroxypiperidin-1-yl)acetyl]amino}-4,5,6,7-tetrahydro-1-benzothiophene-3-carboxylate]			68-73% at 25 uM	
CCOC(=O)c1c(NC(=O)CN2CCCCCC2)sc2c1CCCC2 [h, ethyl 2-[(azepan-1-ylacetyl)amino]-4,5,6,7-tetrahydro-1-benzothiophene-3-carboxylate]			46% at 25 uM	
CCOC(=O)c1c(NC(=O)CN2CCC2)sc2c1CCCC2 [i, ethyl 2-[(azetidin-1-ylacetyl)amino]-4,5,6,7-tetrahydro-1-benzothiophene-3-carboxylate]			28% at 25 uM	
CCOC(=O)c1c(NC(=O)CN2CCCC2)sc2c1CCC2 [j, ethyl 2-[(pyrrolidin-1-ylacetyl)amino]-5,6-dihydro-4H-cyclopenta[b]thiophene-3-carboxylate]			83-88% at 25 uM	
CCOC(=O)c1c(NC(=O)CN2CCCCCC2)sc2c1CCC2 [k, ethyl 2-[(azepan-1-ylacetyl)amino]-5,6-dihydro-4H-cyclopenta[b]thiophene-3-carboxylate]			77-70% at 25 uM	

Compound	Testing Result % inhibition at indicated concentration, Test 1 (25 uM)	Testing Result % inhibition at indicated concentration, Test 2	Testing Result % inhibition at indicated concentration (25 uM)	also measured
CCOC(=O)c1c(NC(=O)CN2CCCCC2)sc(Cl)c1-c1ccccc1 [l, ethyl 5-chloro-4-phenyl-2-[(piperidin-1-ylacetyl)amino]thiophene-3-carboxylate]			35% at 25 uM	
CCOC(=O)c1c(NC(=O)CN2CCCCC2)sc2c1CCC(c1ccccc1)C2 (stereo not shown) [m, ethyl 6-phenyl-2-[(piperidin-1-ylacetyl)amino]-4,5,6,7-tetrahydro-1-benzothiophene-3-carboxylate]			36% at 25 uM	
CCOC(=O)c1c(NC(=O)CN2CCCCC2)sc2c1CCC(C(C)(C)C)C2 (stereo not shown) [n, ethyl 6-tert-butyl-2-[(piperidin-1-ylacetyl)amino]-4,5,6,7-tetrahydro-1-benzothiophene-3-carboxylate]			13% at 25 uM	
CCOC(=O)c1c(NC(=O)C(C)N2CCCCC2)sc2c1CCCC2 (stereo not shown) [o, ethyl 2-[(2-piperidin-1-ylpropanoyl)amino]-4,5,6,7-tetrahydro-1-benzothiophene-3-carboxylate]	46-73%	38-40%		
CCOC(=O)c1c(NC(=O)CN2CCCCC2)sc2c1CCN(C(=O)OCC)C2 [p, diethyl 2-[(piperidin-1-ylacetyl)amino]-4,7-dihydrothieno[2,3-c]pyridine-3,6(5H)-dicarboxylate]	50-52%	33-49%		
CCOC(=O)c1c(NC(=O)CN2CCCCC2)sc2c1CC(C)CC2 (stereo not shown) [q, ethyl 5-methyl-2-[(piperidin-1-ylacetyl)amino]-4,5,6,7-tetrahydro-1-benzothiophene-3-carboxylate]	65-74%	15-22%		
CCOC(=O)c1c(-c2ccc(C)cn2)csc1NC(=O)CN1CCCCC1 [r, ethyl 4-(5-methylpyridin-2-yl)-2-[(piperidin-1-ylacetyl)amino]thiophene-3-carboxylate]	42%	26%		
CCOC(=O)c1c(NC(=O)CN2CCCCC2)sc2c1CC(C)(CC)OC2 (stereo not shown) [s, ethyl 5-ethyl-5-methyl-2-[(piperidin-1-ylacetyl)amino]-4,7-dihydro-5H-thieno[2,3-c]pyran-3-carboxylate]	93-100%	69-79%		
CCOC(=O)c1c(-c2ccco2)csc1NC(=O)CN1CCCCC1 [t, ethyl 4-(2-furyl)-2-[(piperidin-1-ylacetyl)amino]thiophene-3-carboxylate]	70-75%	24-40%		
CCOC(=O)c1c(NC(=O)CN2CCCCC2)sc2c1CCN(Cc1ccccc1)C2 [u, ethyl 6-benzyl-2-[(piperidin-1-ylacetyl)amino]-4,5,6,7-tetrahydrothieno[2,3-c]pyridine-3-carboxylate]	48-51%	0-14%		
CCOC(=O)c1c(-c2ccncc2)csc1NC(=O)CN1CCCCC1 [v, ethyl 2-[(piperidin-1-ylacetyl)amino]-4-pyridin-4-ylthiophene-3-carboxylate]	15-43%	14-17%		
CCOC(=O)c1c(C)csc1NC(=O)CN1CCCCC1 [w, ethyl 4-methyl-2-[(piperidin-1-ylacetyl)amino]thiophene-3-carboxylate]	58-70%	39-47%		
COC(=O)c1c(NC(=O)CN2CCCCC2)sc2c1CCCC2 [x, methyl 2-[(piperidin-1-ylacetyl)amino]-4,5,6,7-tetrahydro-1-benzothiophene-3-carboxylate]	55-70%	41-55%		
CCCOC(=O)c1c(NC(=O)CN2CCCCC2)sc2c1CCCC2 [y, propyl 2-[(piperidin-1-ylacetyl)amino]-4,5,6,7-tetrahydro-1-benzothiophene-3-carboxylate]	52-65%	33-54%		
CCOC(=O)c1c(-c2ccc(Br)cc2)csc1NC(=O)CN1CCCCC1 [z, ethyl 4-(4-bromophenyl)-2-[(piperidin-1-ylacetyl)amino]thiophene-3-carboxylate]	44-55%	37-43%		
